Reference: patent US12102638B2 (Urovant Sciences GmbH, priority 2017, dated 2024)
Where two headings read alike, the source gives them in different places.

How the values were obtained:
[1] = multiple rising dose Phase 1 pharmacokinetics in healthy subjects; type: in vivo, human; details: for concentration at 14 days: male, plasma, oral, read-out: Ctrough
[2] = single-dose PK in patients with moderate hepatic impairment; type: in vivo, human; details: single 100 mg
[3] = drug interaction study of vibegron 75 mg and rifampin; details: for CL/F, geometric mean / V/F, geometric mean: single 75 mg
[4] = effect of food on oral absorption (single and multiple dose); type: in vivo, human; details: for mean AUC0-24 with food compared to fasted state / mean Cmax with food compared to fasted state: 150 mg multiple oral doses, middle-aged and elderly females
[5] = in vivo
men and women with OAB = assay: Phase 2b study in OAB, efficacy (voiding diary); type: in vivo, human
From the text: Part 2 was designed to continue to assess the safety and efficacy of concomitant dosing. […] Subjects in both Part 1 and Part 2 had the option of enrolling in a 1-year extension. Participants were required to keep a voiding diary, recording the occurrence of each strong urge, total incontinence, and urge incontinence episode. Efficacy data for Part 1 and Part 2 are summarized herein.
The total number of urgency incontinence episodes must have exceeded the total number of stress incontinence episodes for all subjects.

[6] = 150 mg multiple doses, middle-aged females, Day 14
[7] = single 50 mg, Japanese young males
[8] = single 50 mg, non-Japanese young males
[9] = vibegron 3 mg once daily, OAB Wet subjects
[10] = vibegron 3 mg once daily, Part 1
[11] = vibegron 15 mg once daily, OAB Wet subjects
[12] = vibegron 15 mg once daily, Part 1
[13] = vibegron 50 mg once daily, OAB Wet subjects
[14] = vibegron 50 mg once daily, Part 1
[15] = vibegron 100 mg once daily, OAB Wet subjects

In the case of O=C(Nc1ccc(C[C@@H]2CC[C@H]([C@H](O)c3ccccc3)N2)cc1)[C@@H]1CCc2nccc(=O)n21 [vibegron, (6S)—N-[4-[[(2S,5R)-5-[(R)-hydroxy(phenyl)methyl]pyrrolidin-2-yl]methyl]phenyl]-4-oxo-7,8-dihydro-6H-pyrrolo[1,2-a]pyrimidine-6-carboxamide], the “Cmax increased in elderly Japanese compared to elderly non-Japanese” value ([1]; human, in vivo) is reported as 82%, the “steady state AUC in middle-aged females compared to middle-aged males” value ([1]; human, in vivo) is reported as ~1.5 fold and the “steady state exposures higher in Japanese than non-Japanese young males” value ([1]; human, in vivo) is reported as ~30%. The concentration at 14 days ([1]; human, 50 mg, multiple dose 50 mg, after 14 days, healthy young males) was 0.0152 µg/mL, the concentration at 14 days ([1]; human, 100 mg, multiple dose 100 mg, after 14 days, healthy young males, Japanese) was 0.041 ± 0.011 µg/mL and the concentration at 14 days ([1]; human, 100 mg, multiple dose 100 mg, after 14 days, healthy young males) was 0.0319 µg/mL. The “t1/2, harmonic mean ± pseudo SD” value ([1]; multiple dose 150 mg, after 14 days, healthy young males) was 79.2 ± 9.2 h, the AUC0-24 ([1]; multiple dose 200 mg, after 14 days, healthy young males) was 3.2 ± 1.12 µg·h/mL and the “t1/2, harmonic mean ± pseudo SD” value ([1]; multiple dose 400 mg, after 14 days, healthy young males) was 58.9 ± 5.9 h. The “time to steady state concentrations” value ([1]; once daily dosing) was ≤ 7 days, the “exposures (AUC) higher in females compared with males” value ([1]; regardless of age) was 50% and the “CL/F, geometric mean” value ([2]; Healthy Matched Control Subjects) was 68.3 L/h. The “CL/F, geometric mean” value ([2]; Moderate Hepatic Impairment) was 56.0 L/h, the “tolerability of vibegron and rifampin” value ([3]; healthy male and female subjects) was “well tolerated” and the “CL/F, geometric mean” value ([3]; Vibegron + Rifampin 600 mg QD) was 57.3 L/h. For the same compound, the “V/F, geometric mean” value ([3]; Vibegron + Rifampin 600 mg QD) was 6140 L, the “CL/F, geometric mean” value ([3]; Vibegron alone) was 57.2 L/h and the “V/F, geometric mean” value ([3]; Vibegron alone) was 6930 L. The “subjects with an AE related to study drug” value ([3]; vibegron 75 mg and rifampin 600 mg QD) was 15%, the “reduction in mean AUC0-24hr with food vs fasted” value [4, 6] was 20% and the “reduction in mean Cmax with food vs fasted” value [4, 6] was 47%. For the same compound, the “mean AUC0-24 with food compared to fasted state” value ([4]; Day 1) was ~42%, the “mean Cmax with food compared to fasted state” value ([4]; Day 1) was 59% and the “mean AUC0-24 with food compared to fasted state” value ([4]; Day 14) was ~20%. The “mean Cmax with food compared to fasted state” value ([4]; Day 14) was 43%, the Ctrough ([4]; multiple dose 150 mg, day 14, Non-Japanese middle-aged females, Fasted) was 0.0627 ± 0.0124 µg/mL and the “reduction in AUC0-inf with standard Japanese breakfast” value [4, 7] was 37%. For the same compound, the “reduction in Cmax with standard Japanese breakfast” value [4, 7] was 52%, the “delay in Tmax with high-fat meal vs fasted” value [4, 8] was ~1 h and the “reduction in AUC0-inf with high-fat meal vs fasted” value [4, 8] was 46%. For the same compound, the “reduction in Cmax with high-fat meal vs fasted” value [4, 8] was 67%, the “severe TEAEs, SAEs or deaths” value [5] was “no severe TEAEs, SAEs or deaths” and the “postural dizziness, dose relation” value (healthy subjects; Phase 1 multiple dose studies) was “appeared to increase at doses ≥100 mg”. For the same compound, the “treatment-emergent serious adverse events (SAEs) or deaths” value (healthy subjects; Phase 1 program) was “no treatment-emergent serious adverse events (SAEs) or deaths reported”, the “incidence of AE orthostatic hypotension with symptoms, dose relation” value (healthy subjects; Phase 1 studies) was “higher at vibegron doses greater than 150 mg” and the “laboratory safety parameters and ECG parameters” value (healthy subjects; preliminary Phase 1 safety data) was “no clinically meaningful changes”. For the same compound, the “tolerability across the Phase 1 program” value (healthy subjects; single doses 2 to 600 mg, multiple doses 25 to 400 mg up to 28 days) was “generally well tolerated”, the “orthostatic AEs on coadministration with metoprolol or amlodipine” value (healthy subjects; vibegron 100 mg, subjects with essential hypertension) was “no occurrences of orthostatic AEs” and the dose-response relationship (men and women with OAB; between 50 and 100 mg once daily) was “relatively shallow dose-response relationship”. For the same compound, the “Total Incontinence Episodes, difference from placebo Week 8, LS means” value (“Total Incontinence Episodes, difference” for short) (men and women with OAB; [9]) was −0.18, the “Urgency Incontinence Episodes, difference from placebo Week 8, LS means” value (men and women with OAB; [9]) was −0.28 and the “Micturitions, difference from placebo Week 8, LS means” value (men and women with OAB; [10]) was −0.46. The “Urgency Episodes, difference from placebo Week 8, LS means” value (men and women with OAB; [10]) was −0.18, the “Total Incontinence Episodes, difference” value (men and women with OAB; [11]) was −0.48 and the “Urgency Incontinence Episodes, daily number, Week 8 mean” value (men and women with OAB; [11]) was 1.12. The “Urgency Incontinence Episodes, difference from placebo Week 8, LS means” value (men and women with OAB; [11]) was −0.57, the “Micturitions, difference from placebo Week 8, LS means” value (men and women with OAB; [12]) was −0.45 and the “Urgency Episodes, difference from placebo Week 8, LS means” value (men and women with OAB; [12]) was −0.67. The “Total Incontinence Episodes, difference” value (men and women with OAB; [13]) was −0.60, the “Urgency Incontinence Episodes, difference from placebo Week 8, LS means” value (men and women with OAB; [13]) was −0.72 and the “Micturitions, difference from placebo Week 8, LS means” value (men and women with OAB; [14]) was −0.64. For the same compound, the “Urgency Episodes, difference from placebo Week 8, LS means” value (men and women with OAB; [14]) was −0.76, the “average number of daily micturitions compared to placebo at Week 8” value (men and women with OAB; vibegron 100 mg and 50 mg treatment groups, Part 1) was “statistically significant decreases” and the “Total Incontinence Episodes, daily number, Week 8 mean” value (men and women with OAB; [15]) was 1.12. For the same compound, the “Total Incontinence Episodes, difference” value (men and women with OAB; [15]) was −0.58, the “Urgency Incontinence Episodes, difference from placebo Week 8, LS means” value (men and women with OAB; [15]) was −0.71 and the “Micturitions, difference from placebo Week 8, LS means” value (men and women with OAB; vibegron 100 mg once daily, Part 1) was −0.91. The “Micturitions, difference in LS means 100 mg − 50 mg” value (men and women with OAB; week 8) was −0.27, the “Total incontinence, difference in LS means 100 mg − 50 mg” value (men and women with OAB; week 8) was 0.02 and the “Urgency Episodes, difference in LS means 100 mg − 50 mg” value (men and women with OAB; week 8) was −0.48. The “Urgency incontinence, difference in LS means 100 mg − 50 mg” value (men and women with OAB; week 8) was 0.01.
